Experimental data as given in patent publication US20120004228A1, “Bis Aromatic Compounds for Use as LTC4 Synthase Inhibitors” (BIOLIPOX AB, priority 2009, published 2012).

biological target: T1, Recombinant human LTC4 synthase (Homo sapiens, UniProt Q16873); test: In vitro LTC4 synthase assay (LTA4 to LTC4, HTRF detection); format: biochemical
T1 construct: made in house; host or cells: Pichia pastoris ('Piccia pastoralis' [sic])
T1 sequence (Q16873 1-150): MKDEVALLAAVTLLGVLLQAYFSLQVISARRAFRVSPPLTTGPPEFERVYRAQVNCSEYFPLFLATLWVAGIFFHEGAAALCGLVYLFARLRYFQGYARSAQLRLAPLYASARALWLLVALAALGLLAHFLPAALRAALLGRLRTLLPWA

| SMILES | IC50 [nM] |
| --- | --- |
| CN(c1ccc(Cl)cc1)c1ccc(C(=O)c2cc(NC(=O)c3ccc(Cl)cc3Cl)cc(C(=O)O)c2)cc1 [Example 1:1, 3-{4-[(4-Chlorophenyl)(methyl)amino]benzoyl}-5-(2,4-dichlorobenzamido)benzoic acid] | 166 |
| COc1cccc(Oc2cc(C(=O)O)cc(C(=O)c3ccc(N(C)c4ccc(Cl)cc4)cn3)c2)c1 [8:3, 3-{5-[(4-Chlorophenyl)(methyl)amino]picolinoyl}-5-(3-methoxyphenoxy)benzoic acid] | 188 |
| CN(c1ccc(Cl)cc1)c1ccc(C(=O)c2cc(C(=O)O)cc(N(CC3(C)COC3)c3ccccc3)c2)nc1 [9:15, 3-{5-[(4-Chlorophenyl)(methyl)amino]picolinoyl}-5-{[(3-methyloxetan-3-yl)-methyl](phenyl)amino}benzoic acid] | 50 |
| CN(c1ccc(Cl)cc1)c1ccc(C(=O)c2cc(C(=O)O)cc(-c3ccccc3Cl)c2)nc1 [12:3, 2′-Chloro-5-{5-[(4-chlorophenyl)(methyl)amino]picolinoyl}biphenyl-3-carboxylic acid] | 234 |
| CN(c1ccc(Cl)cc1)c1ccc(C(=O)c2cc(C(=O)O)cc(C(=O)Nc3ccccc3)c2)nc1 [Example 2:1, 3-{5-[(4-Chlorophenyl)(methyl)aminol]picolinoyl}-5-(phenylcarbamoyl)benzoic acid] | 449 |
| CCCCCCNC(=O)c1cc(C(=O)O)cc(C(=O)c2ccc(N(C)c3ccc(Cl)cc3)cn2)c1 [2:5, 3-{5-[(4-Chlorophenyl)(methyl)amino]picolinoyl}-5-(hexylcarbamoyl)benzoic acid] | 102 |
| CN(c1ccc(Cl)cc1)c1ccc(C(=O)c2cc(Oc3cccc(Cl)c3)cc(C(=O)O)c2)cc1 [8:20, 3-(3-Chlorophenoxy)-5-{4-[(4-chlorophenyl)(methyl)amino]benzoyl}benzoic acid] | 87 |
| CN(c1ccc(Cl)cc1)c1ccc(C(=O)c2cc(Nc3ccc(Cl)cc3)cc(C(=O)O)c2)cc1 [Example 10:2, 3-{4-[(4-Chlorophenyl)(methyl)amino]benzoyl}-5-(4-chlorophenylamino)-benzoic acid] | 64 |

Continued, values first:

| IC50 [nM] | SMILES |
| --- | --- |
| 259 | CN(c1ccc(Cl)cc1)c1ccc(C(=O)c2cc(C(=O)O)cc(-n3ccc4ccccc43)c2)nc1 [Example 16, 3-{5-[(4-Chlorophenyl)(methyl)aminol]picolinoyl}-5-(1-indolyl)benzoic acid] |
| 126 | CN(c1ccc(Cl)cc1)c1ccc(C(=O)c2cc(C(=O)O)cc(N(CCCCO)c3cccnc3)c2)nc1 [9:39, 3-{5-[(4-Chlorophenyl)(methyl)amino]picolinoyl}-5-[(4-hydroxybutyl)(3-pyridyl)-amino]benzoic acid] |
| 68 | CN(c1ccc(Cl)cc1)c1ccc(C(=O)c2cc(C(=O)O)cc(N(CC3(C)COC3)c3ccccc3F)c2)cc1 [10:28, 3-{4-[(4-Chlorophenyl)(methyl)amino]benzoyl}-5-{(2-fluorophenyl)[(3-methyl-oxetan-3-yl)methyl]amino}benzoic acid] |
| 483 | COc1ccc(Nc2cc(C(=O)O)cc(C(=O)c3ccc(N(C)c4ccc(Cl)cc4)cc3)c2)cc1OC [10:7, 3-{4-[(4-Chlorophenyl)(methyl)amino]benzoyl}-5-(3,4-dimethoxyphenyl-amino)benzoic acid] |
| 75 | CN(Cc1cccc(Cl)c1)c1cc(C(=O)O)cc(C(=O)c2ccc(N(C)c3ccc(Cl)cc3)cn2)c1 [9:10, 3-[(3-Chlorobenzyl)(methyl)amino]-5-{5-[(4-chlorophenyl)(methyl)amino]-picolinoyl}benzoic acid] |

biological target: T1, Recombinant human LTC4 synthase; test: as above; format: biochemical; remark: another data set of the same source

| inhibition at 1 µM [%] | SMILES |
| --- | --- |
| 95 | CN(c1ccc(Cl)cc1)c1ccc(C(=O)c2cc(NC(=O)c3ccc(Cl)cc3Cl)cc(C(=O)O)c2)cc1 [Example 1:1, 3-{4-[(4-Chlorophenyl)(methyl)amino]benzoyl}-5-(2,4-dichlorobenzamido)benzoic acid] |
